Laboratory results from article PMC6382835, “A critical evaluation of TRPA1-mediated locomotor behavior in zebrafish as a screening tool for novel anti-nociceptive drug discovery” (Scientific Reports, 2019).

Molecular target: T1, zebrafish TRPA1b (zTRPA1b) (Danio rerio, UniProt A0A8M1N2Z4)
T1 sequence (A0A8M1N2Z4 1-1120): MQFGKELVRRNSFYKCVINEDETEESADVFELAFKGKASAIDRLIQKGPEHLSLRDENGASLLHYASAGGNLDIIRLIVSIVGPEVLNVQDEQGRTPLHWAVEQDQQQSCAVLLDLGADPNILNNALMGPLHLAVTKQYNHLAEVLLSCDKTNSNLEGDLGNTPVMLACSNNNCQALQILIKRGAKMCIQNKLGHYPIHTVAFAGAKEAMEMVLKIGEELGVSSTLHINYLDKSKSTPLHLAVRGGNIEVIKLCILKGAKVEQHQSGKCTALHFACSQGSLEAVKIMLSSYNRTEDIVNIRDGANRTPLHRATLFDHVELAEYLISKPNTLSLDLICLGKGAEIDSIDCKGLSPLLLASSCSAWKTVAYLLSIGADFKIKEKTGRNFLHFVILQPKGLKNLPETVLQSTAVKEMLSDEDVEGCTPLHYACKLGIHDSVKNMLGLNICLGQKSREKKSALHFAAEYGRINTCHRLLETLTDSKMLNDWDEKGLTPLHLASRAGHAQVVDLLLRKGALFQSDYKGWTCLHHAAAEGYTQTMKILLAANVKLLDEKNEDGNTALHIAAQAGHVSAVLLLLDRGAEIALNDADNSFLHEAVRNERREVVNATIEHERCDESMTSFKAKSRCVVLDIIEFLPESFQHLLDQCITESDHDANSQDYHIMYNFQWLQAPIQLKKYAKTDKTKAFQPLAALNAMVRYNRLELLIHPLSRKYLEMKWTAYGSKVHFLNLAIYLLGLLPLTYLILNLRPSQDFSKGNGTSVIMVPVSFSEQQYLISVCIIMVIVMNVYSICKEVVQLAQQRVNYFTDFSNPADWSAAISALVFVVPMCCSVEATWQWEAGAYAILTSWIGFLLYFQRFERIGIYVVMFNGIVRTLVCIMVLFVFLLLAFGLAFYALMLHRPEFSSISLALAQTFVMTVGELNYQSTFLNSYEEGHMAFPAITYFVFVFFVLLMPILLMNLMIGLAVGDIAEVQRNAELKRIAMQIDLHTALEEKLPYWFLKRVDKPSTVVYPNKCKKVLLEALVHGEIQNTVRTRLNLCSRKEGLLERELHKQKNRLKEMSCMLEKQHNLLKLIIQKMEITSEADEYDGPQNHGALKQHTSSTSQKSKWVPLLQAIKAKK
Assay: FLIPR calcium signaling assay in zTRPA1b-transfected HEK293 cells
Assay type: cell-based
Details: for EC50: agonist calcium influx, zTRPA1b-transfected HEK293, read-out: EC50 (potency in µM)
Procedure: The cells were maintained in a 37 °C incubator with consistent 5% CO2. […] Experiments were carried out with the approval of the Institutional Biohazard Committee (#13-013-16).
Twenty-five µl calcium sensitive Fluorescent Imaging Plate Reader (FLIPR) Calcium 6 assay dye (#R8190, Molecular Devices, CA, USA) was added to each well of a 384-well plate containing HEK293 cells transiently expressing mTRPA1, zTRPA1a, and zTRPA1b, respectively. The cells were incubated for an hour prior to the recording of intracellular calcium levels in a FlexStation3 Multi-Mode Microplate Reader (#R8190, Molecular Devices) as previously described. […] During the assay, the cells were challenged by a 5x ASP7663 solution or 1% DMSO solution at the 20 seconds time point, and both solutions were diluted in calcium buffer. Relative fluorescence units (RFU) were measured for 120 seconds period by the Flexstation. […] For each specific antagonist concentration we plotted Log(dose ratio-1) against the antagonist concentration in a Schild plot. The dose ratio (A’/A) equals the EC50 of the agonist (ASP7665) in the presence of a concentration of the antagonist (A’) divided by the EC50 of the agonist in the absence of antagonist (A). The x-intercept of the Schild plot was used to identify the antagonist-receptor affinity (pA2).
All data are presented as means ± standard error of the mean (SEM). For our in vitro statistical analysis, AUC of calcium influx (RFU) was measured to plot dose-response curves, which were further analyzed by nonlinear regression analysis. Mean RFU of the first 10 seconds was used as a baseline of the AUC. EC50 values of the dose-response curves were further used to plot Schild curves, and the curves were analyzed with linear regression analysis. For the mice von Frey test, mechanical thresholds were analyzed with two-way ANOVA followed by a Bonferonni test for multiple comparison analysis. For the zebrafish behavior test, the data from the first five seconds following drug administration were excluded, as zebrafish displacement during that period was highly influenced by liquid dispensing. AUC of all curves were measured and analyzed by one-way ANOVA. The post-hoc analysis was conducted with the Tukey’s or Dunnett’s multiple comparisons unless it stated otherwise. […] For our time-course average displacement graph, we used 2nd degree polynomial smoothing for a better representation; however, we used data before smoothing for all statistical analysis and quantification. All in vitro and in vivo data were evaluated using GraphPad Prism 7 (GraphPad Software, La Jolla, CA) unless it stated otherwise.

SMILES	EC50	calcium influx by antagonist alone (316 µM, zTRPA1b-transfected cells)	pA2 expressed in µM (Schild plot against ASP7663-mediated calcium influx, zTRPA1b)	pA2 (Schild plot against ASP7663-mediated calcium influx, zTRPA1b, only two antagonist doses)	Schild slope (zTRPA1b, n = 2)
C=CCN=C=S [AITC, allyl isothiocyanate]	35.4 µM	–	–	–	–
CC(C)c1ccc(NC(=O)Cn2cnc3c2c(=O)n(C)c(=O)n3C)cc1 [HC-030031]	–	could produce an influx of intracellular calcium	27.1 µM	4.6 ± 0.3	0.83 ± 0.05
CC(C)CN1C(=O)/C(=C/C(=O)O)c2cccc(F)c21 [ASP7663]	99 µM	–	–	–	–
